Test results published in PMC4498228, “Biotransformation of Endocrine-Disrupting Compounds in Groundwater: Bisphenol A, Nonylphenol, Ethynylestradiol and Triclosan by a Laccase Cocktail from Pycnoporus sanguineus CS43” (Water, Air, and Soil Pollution, 2015).
Like-named read-outs stand apart in the source and are kept apart here.

Tested on: T1, laccase cocktail (LacI/LacII) from Pycnoporus sanguineus CS43
T1 construct: gene Lac I; native secreted enzymes
Assay: transformation rates at varied EDC concentration, Michaelis-Menten fit (HPLC-UV)
Assay type: biochemical, Trametes sanguinea
Conditions: free laccase cocktail (two isoforms), 100 U/L, pH 5 McIlvaine buffer, 25 °C, no mediator, read-out: Catalytic parameters / K m /
Description: transformation rates at varied EDC concentration, Michaelis-Menten fit (HPLC-UV) on laccase cocktail (LacI/LacII) from Pycnoporus sanguineus CS43

Structure (SMILES)	Km (called Kapp in the text) [µM]	Km (apparent Km) [µM]
CC(C)(c1ccc(O)cc1)c1ccc(O)cc1 [BPA, bisphenol A]	482	
C#C[C@]1(O)CC[C@H]2[C@@H]3CCc4cc(O)ccc4[C@H]3CC[C@@]21C [EE2, 17-α-ethynylestradiol]		32
CCCCCCCCCc1ccc(O)cc1 [NP, 4-nonylphenol]		73.6
Oc1cc(Cl)ccc1Oc1ccc(Cl)cc1Cl [TCS, triclosan]		302
